For assay [1], the target named is PI3K-δ (PI3K(p1108/p857) (h)) (Homo sapiens, UniProt O00329). The experiment in a line: Evaluation of inhibitory activity against PI3K-δ (HTRF kinase assay). The format is biochemical. The note with it: for inhibition at 0.01 µM: compound concentration 0.01 μM, read-out: EXP_VALUE(% Inhibition) PI3K-δ 0.01 μM; for inhibition at 0.1 µM: read-out: EXP_VALUE(% Inhibition) PI3K-δ 0.1 μM. The method in brief: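 HTRF read-out (665/620 nm ratio ×10000) used Eu-labelled anti-GST, GST-tagged GRP1 PH domain and streptavidin-allophycocyanin after EDTA/PIP3 stop.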

The next assay has as its target DNA-PK(h) (Homo sapiens, UniProt P78527). The experiment in a line: Evaluation of inhibitory activity against DNA-PK (HTRF kinase assay, GST-cMyc-p53 substrate). Format: biochemical. The settings on record: for inhibition at 0.01 µM: compound concentration 0.01 μM, read-out: EXP_VALUE(% Inhibition) DNA-PK(h) 0.01 μM; for inhibition at 0.1 µM: read-out: EXP_VALUE(% Inhibition) DNA-PK(h) 0.1 μM. The gist of the method: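 p53 Ser15 phosphorylation by human DNA-PK was measured by time-resolved FRET ratio (665/620 nm ×10000) using Eu-labelled anti-phospho-Ser15 and d2 anti-GST antibodies. Substrate GST-cMyc-p53 at 50 μM; Mg/ATP-initiated, 30 min at room temperature, EDTA stop.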
(In general: Time-resolved FRET reads energy transfer from a long-lived donor to a nearby acceptor.)

Read-outs that look alike come from different tables or passages of the source.

Consider 15 molecules from patent US20230072683A1, “PYRIDO-PYRIMIDIN DERIVATIVES AND PHARMACEUTICAL COMPOSITION, FOR USE IN PREVENTING OR TREATING PI3 KINASE RELATED DISEASES, COMPRISING SAME AS ACTIVE INGREDIENT” (BORYUNG PHARMACEUTICAL CO., LTD, priority 2019, published 2023).

PI3K-δ (PI3K(p1108/p857) (h)), sequence (O00329 whole entry, the tested form may be a part): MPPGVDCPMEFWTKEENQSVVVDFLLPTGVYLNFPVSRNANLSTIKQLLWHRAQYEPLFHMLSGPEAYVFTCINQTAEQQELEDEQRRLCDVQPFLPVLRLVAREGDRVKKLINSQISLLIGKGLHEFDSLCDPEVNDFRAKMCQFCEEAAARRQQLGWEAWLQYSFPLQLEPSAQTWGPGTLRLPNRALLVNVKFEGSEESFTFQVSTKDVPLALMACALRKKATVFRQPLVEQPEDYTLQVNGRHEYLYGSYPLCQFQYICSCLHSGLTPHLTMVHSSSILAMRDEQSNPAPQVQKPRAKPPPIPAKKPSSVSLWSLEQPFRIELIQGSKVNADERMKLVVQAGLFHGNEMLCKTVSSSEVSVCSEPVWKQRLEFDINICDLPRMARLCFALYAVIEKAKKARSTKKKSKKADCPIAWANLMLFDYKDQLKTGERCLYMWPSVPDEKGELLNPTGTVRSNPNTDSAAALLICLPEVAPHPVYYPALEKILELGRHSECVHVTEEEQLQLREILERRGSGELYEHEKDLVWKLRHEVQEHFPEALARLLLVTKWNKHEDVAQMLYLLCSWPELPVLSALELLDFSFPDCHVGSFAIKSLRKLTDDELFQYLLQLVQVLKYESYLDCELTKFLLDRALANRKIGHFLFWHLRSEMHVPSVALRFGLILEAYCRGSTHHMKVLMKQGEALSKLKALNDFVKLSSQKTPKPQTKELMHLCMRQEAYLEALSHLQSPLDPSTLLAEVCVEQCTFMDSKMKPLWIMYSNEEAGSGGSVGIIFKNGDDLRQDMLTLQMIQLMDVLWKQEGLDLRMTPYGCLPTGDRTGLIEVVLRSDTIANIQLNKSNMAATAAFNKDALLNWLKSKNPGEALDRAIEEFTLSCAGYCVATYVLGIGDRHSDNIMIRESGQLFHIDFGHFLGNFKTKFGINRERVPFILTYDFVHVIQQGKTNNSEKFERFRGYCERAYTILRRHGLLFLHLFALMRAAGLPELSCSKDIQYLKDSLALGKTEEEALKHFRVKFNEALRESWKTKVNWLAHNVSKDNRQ
PI3K-δ (PI3K(p1108/p857) (h)), sequence (P27986 whole entry partner, the tested form may be a part): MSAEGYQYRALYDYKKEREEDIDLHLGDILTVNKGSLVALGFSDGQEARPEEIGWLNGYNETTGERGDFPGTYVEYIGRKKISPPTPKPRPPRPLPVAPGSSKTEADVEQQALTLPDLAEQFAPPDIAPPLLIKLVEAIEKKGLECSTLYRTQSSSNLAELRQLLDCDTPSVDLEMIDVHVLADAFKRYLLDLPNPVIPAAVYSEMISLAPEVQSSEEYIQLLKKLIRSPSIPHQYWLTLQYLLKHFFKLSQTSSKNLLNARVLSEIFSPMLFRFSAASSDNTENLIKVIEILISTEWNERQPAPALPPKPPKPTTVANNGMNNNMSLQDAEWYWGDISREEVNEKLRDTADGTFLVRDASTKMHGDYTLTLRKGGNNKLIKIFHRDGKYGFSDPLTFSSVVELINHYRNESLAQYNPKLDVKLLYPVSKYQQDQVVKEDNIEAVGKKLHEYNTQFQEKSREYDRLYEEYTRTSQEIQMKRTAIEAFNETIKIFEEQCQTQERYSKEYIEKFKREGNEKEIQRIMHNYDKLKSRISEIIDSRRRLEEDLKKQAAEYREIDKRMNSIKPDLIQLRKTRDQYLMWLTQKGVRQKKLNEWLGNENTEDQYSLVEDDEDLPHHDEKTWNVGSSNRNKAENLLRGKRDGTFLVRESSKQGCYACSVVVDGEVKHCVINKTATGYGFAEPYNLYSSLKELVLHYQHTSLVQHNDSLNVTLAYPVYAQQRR

Usually inhibition stands for the change of the read-out against control, counted positive when it falls. On to `C[C@H](Nc1ncnc2[nH]ccc(=O)c12)c1c(Cl)c2cccc(-c3cc(O)ncn3)c2c(=O)n1-c1ccccc1` [Example 50, (S)-4-((1-(4-chloro-8-(6-hydroxypyrimidin-4-yl)-1-oxo-2-phenyl-1,2-dihydroisoquinolin-3-yl)ethyl)amino)pyrido[2,3-d]pyrimidin-5(8H)-one], for which the inhibition at 0.01 µM in assay [1] was found to be 96%; at DNA-PK(h), 53%.
The corresponding values for `COc1ccc(-c2cccc3c(Cl)c([C@H](C)Nc4ncnc5[nH]ccc(=O)c45)n(-c4ccccc4)c(=O)c23)cc1OC` [Example 155, (S)-4-((1-(4-chloro-8-(3,4-dimethoxyphenyl)-1-oxo-2-phenyl-1,2-dihydroisoquinolin-3-yl)ethyl)amino)pyrido[2,3-d]pyrimidin-5(8H)-one] are 95% and 87%.
On to `C[C@H](Nc1ncnc2[nH]ccc(=O)c12)c1c(Cl)c2cccc(C(=O)Nc3ccccc3)c2c(=O)n1-c1ccccc1` [Example 440, (S)-4-chloro-1-oxo-3-(1-((5-oxo-5,8-dihydropyrido[2,3-d]pyrimidin-4-yl)amino)ethyl)-N, 2-diphenyl-1,2-dihydroisoquinoline-8-carboxamide], for which the inhibition at 0.1 µM in assay [1] (compound at 0.1 μM) was found to be 92%; at DNA-PK(h) (compound at 0.1 μM), 16%.
For the molecule `C[C@H](Nc1ncnc2[nH]ccc(=O)c12)c1c(Cl)c2cccc(-c3cc(O)cc(F)c3)c2c(=O)n1-c1ccccc1` [Example 108, (S)-4-((1-(4-chloro-8-(3-fluoro-5-hydroxyphenyl)-1-oxo-2-phenyl-1,2-dihydroisoquinolin-3-yl)ethyl)amino)pyrido[2,3-d]pyrimidin-5(8H)-one], the inhibition at 0.01 µM in assay [1] worked out at 99%; at DNA-PK(h), 7%. Besides, the inhibition at 0.1 µM in assay [1] (compound concentration 0.1 μM) came out at 102%; on DNA-PK(h) (compound concentration 0.1 μM), 66%.
`C[C@H](Nc1ncnc2[nH]ccc(=O)c12)c1c(Cl)c2cccc(C3=CCCC3)c2c(=O)n1-c1ccccc1` [Example 156, (S)-4-((1-(4-chloro-8-(cyclopent-1-en-1-yl)-1-oxo-2-phenyl-1,2-dihydroisoquinolin-3-yl)ethyl)amino)pyrido[2,3-d]pyrimidin-5(8H)-one]: the inhibition at 0.01 µM stood at 82% in assay [1] and 42% on DNA-PK(h).
On to `C[C@H](Nc1ncnc2[nH]ccc(=O)c12)c1c(Cl)c2cccc(-c3cnoc3)c2c(=O)n1-c1ccccc1` [Example 238, (S)-4-((1-(4-chloro-8-(isoxazol-4-yl)-1-oxo-2-phenyl-1,2-dihydroisoquinolin-3-yl)ethyl)amino)pyrido[2,3-d]pyrimidin-5(8H)-one], for which the inhibition at 0.01 µM (in assay [1]; on DNA-PK(h)) was 15% throughout.
Turning to `C[C@H](Nc1ncnc2[nH]ccc(=O)c12)c1c(Cl)c2cccc(-c3ccc(N)cc3)c2c(=O)n1-c1ccccc1` [Example 94, (S)-4-((1-(8-(4-aminophenyl)-4-chloro-1-oxo-2-phenyl-1,2-dihydroisoquinolin-3-yl)ethyl)amino)pyrido[2,3-d]pyrimidin-5(8H)-one], the inhibition at 0.01 µM in assay [1] was determined as 84%; on DNA-PK(h), 78%. The inhibition at 0.1 µM in assay [1] (compound concentration 0.1 μM) amounted to 95%; on DNA-PK(h) (compound concentration 0.1 μM), 100%.
Consider `C[C@H](Nc1ncnc2[nH]ccc(=O)c12)c1c(Cl)c2cccc(Oc3ccncc3)c2c(=O)n1-c1ccccc1` [Example 428, (S)-4-((1-(4-chloro-1-oxo-2-phenyl-8-(pyridin-4-yloxy)-1,2-dihydroisoquinolin-3-yl)ethyl)amino)pyrido[2,3-d]pyrimidin-5(8H)-one], for which the inhibition at 0.1 µM in assay [1] (compound at 0.1 μM) is 86%; on DNA-PK(h) (compound at 0.1 μM) it was 13%.
As for `CC[S@](=N)(=O)c1cccc2c(Cl)c([C@H](C)Nc3ncnc4[nH]ccc(=O)c34)n(-c3ccccc3)c(=O)c12` [Example 436, 4-(((S)-1-(4-chloro-8-((S)-ethylsulfonimidoyl)-1-oxo-2-phenyl-1,2-dihydroisoquinolin-3-yl)ethyl)amino)pyrido[2,3-d]pyrimidin-5(8H)-one], the inhibition at 0.1 µM in assay [1] (compound at 0.1 μM) is 7%; at DNA-PK(h) (compound at 0.1 μM), 9%.
As for `C[C@H](Nc1ncnc2[nH]ccc(=O)c12)c1c(Cl)c2cccc(-c3ccc4nccnc4c3)c2c(=O)n1-c1ccccc1` [Example 137, (S)-4-((1-(4-chloro-1-oxo-2-phenyl-8-(quinoxalin-6-yl)-1,2-dihydroisoquinolin-3-yl)ethyl)amino)pyrido[2,3-d]pyrimidin-5(8H)-one], the inhibition at 0.01 µM in assay [1] was determined as 84%; on DNA-PK(h) it was 87%. Moreover, the inhibition at 0.1 µM in assay [1] (compound concentration 0.1 μM) came to 92%; at DNA-PK(h) (compound concentration 0.1 μM) it was 100%.
For `Cc1nc(N)ncc1-c1cccc2c(Cl)c([C@H](C)Nc3ncnc4[nH]ccc(=O)c34)n(-c3ccccc3)c(=O)c12` [Example 212, (S)-4-((1-(8-(2-amino-4-methylpyrimidin-5-yl)-4-chloro-1-oxo-2-phenyl-1,2-dihydroisoquinolin-3-yl)ethyl)amino)pyrido[2,3-d]pyrimidin-5(8H)-one], the results for the inhibition at 0.01 µM (in assay [1]; on DNA-PK(h)) were 94% and 57%, respectively.
`C[C@H](Nc1ncnc2[nH]ccc(=O)c12)c1c(Cl)c2cccc(-c3ccncc3)c2c(=O)n1-c1ccccc1` [Example 134, (S)-4-((1-(4-chloro-1-oxo-2-phenyl-8-(pyridin-4-yl)-1,2-dihydroisoquinolin-3-yl)ethyl)amino)pyrido[2,3-d]pyrimidin-5(8H)-one]: the inhibition at 0.01 µM in assay [1] was 85%; at DNA-PK(h), 83%. The values for the inhibition at 0.1 µM (in assay [1] (compound concentration 0.1 μM); at DNA-PK(h) (compound concentration 0.1 μM)) were 92% and 97%, respectively.
As for `Cc1ccc(Oc2cccc3c(Cl)c([C@H](C)Nc4ncnc5[nH]ccc(=O)c45)n(-c4ccccc4)c(=O)c23)cc1` [Example 367, (S)-4-((1-(4-chloro-1-oxo-2-phenyl-8-(p-tolyloxy)-1,2-dihydroisoquinolin-3-yl)ethyl)amino)pyrido[2,3-d]pyrimidin-5(8H)-one], the figures for the inhibition at 0.01 µM (in assay [1]; on DNA-PK(h)) were 51% and 21%, respectively. For the same molecule, the results for the inhibition at 0.1 µM (in assay [1] (compound concentration 0.1 μM); at DNA-PK(h) (compound concentration 0.1 μM)) were 93% and 67%, respectively.
For the molecule `C[C@H](Nc1ncnc2[nH]ccc(=O)c12)c1c(Cl)c2cccc(-c3cnc(C4CCC4)nc3)c2c(=O)n1-c1ccccc1` [Example 54, (S)-4-((1-(4-chloro-8-(2-cyclobutylpyrimidin-5-yl)-1-oxo-2-phenyl-1,2-dihydroisoquinolin-3-yl)ethyl)amino)pyrido[2,3-d]pyrimidin-5(8H)-one], the inhibition at 0.01 µM in assay [1] stood at 55%; at DNA-PK(h), 42%.
Consider `C[C@H](Nc1ncnc2[nH]ccc(=O)c12)c1c(Cl)c2cccc(C#Cc3ccccn3)c2c(=O)n1-c1ccccc1` [Example 308, (S)-4-((1-(4-chloro-1-oxo-2-phenyl-8-(pyridin-2-ylethynyl)-1,2-dihydroisoquinolin-3-yl)ethyl)amino)pyrido[2,3-d]pyrimidin-5(8H)-one], for which the inhibition at 0.01 µM was 28.4% in assay [1] and 21.5% at DNA-PK(h). Also, the inhibition at 0.1 µM was 60.3% in assay [1] (compound concentration 0.1 μM) and 70.3% on DNA-PK(h) (compound concentration 0.1 μM).
